# From patent US11458189B2, “Cytoprotective drugs” (BALMES TRANSPLANTATION, priority 2017, dated 2022)
# Starred links: 1 amine or outer side, 2 acyl side, 3 side chain; linkers in the order of their positions; H or OH if unused. Positions of bridges follow the written chain, without caps; N, C: chain ends. Non-standard residues stand in square brackets, D forms with d. Residues, ends and D or L forms follow the SMILES beside them. ξ: configuration not given here. *: point of attachment. pTerphenylCO(4''-OnC5H11) = CCCCCOc1ccc(-c2ccc(-c3ccc(C(=O)*)cc3)cc2)cc1; Orn(4R-OH,5R-OH) = O=C([C@H](C[C@@H](O)[C@@H](O)N[*:3])N[*:1])[*:2]; hTyr(3S-OH,4S-OH) = N[C@H](C(=O)O)[C@H](O)[C@@H](O)c1ccc(O)cc1; Pro(3S-OH,4S-Me) = C[C@H]1CN[C@H](C(=O)O)[C@H]1O; ξPro(4R-OH) = O=C(O)C1C[C@@H](O)CN1
# Test system: Human Astrocytes (HA)
# Assay: Oxygen and glucose deprivation followed by replenishment, cell survival (calcein AM), HA
# Type: cell-based
# Method: Anidulafungin and micafungin were tested on Human Renal Glomerular Endothelial Cells (HRGEC, Innoprot P10665), on Human Renal Proximal Tubular Epithelial Cells (HRPTEpiC, Innoprot P10662), on Human Astrocytes (HA, caltag SC-1800), on Human Cardiac Microvascular Endothelial Cells (HCMEC, Caltag SC-6000), on Human Hepatic Sinusoidal Endothelial Cells (HHSEC, Caltag SC-5000), on Rat Primary Kidney Glomerular Endothelial cells (Cellbiologics, RN-6014G) and on Bovine Brain Microvascular Endothelial Cells (BBMEC, Caltag SC-B100).
# In a first phase, these isolated, purified and cryopreserved cells are thawed and multiplied according to the supplier's recommendations in T75 or T175 flasks pre-coated with 2 μg of fibronectin/[…] (CORNING) for HRGEC, HCMEC, HHSEC and BBMEC, or 2 μg poly-L-lysin/cm^2 (Caltag SC-0403) for HRPTEpiC and HA, or 15 mL/flask 175 cm^2 gelatin-based solution (Cellbiologics) in the presence of endothelial cell supplemented growth medium ECM (P60104, INNOPROT, Caltag, SC-1001) for HRGEC, HCMEC, HHSEC, RPKGEC or BBMEC, or astrocyte cell supplemented growth medium AM (Caltag SC-1801) for HA or epithelial cell supplemented growth medium EpiCM (P60106, INNOPROT) for HRPTEpiC, at 37° C. under 5% CO2 and saturated humidity until their confluency. They are then harvested by trypsinization according to the method described by the supplier for exactly 5 minutes and then reseeded in new flasks a maximum of three times.
# To carry out the oxygen and glucose deprivation test followed by their replenishment, the cells will be seeded in 96-well black plates with transparent flat bottom (GREINER). Once a sufficient number of cells has been obtained to allow seeding of 2000 to 15000 cells per well of 96-well plates depending on the cell type, the cells are seeded in these 96-well plates previously coated with an extracellular matrix as listed above for the flasks. The cells are cultured for 5 to 8 days according to the cell type, in the presence of the same growth medium as in the flask as described above except for HRGEC and HRPTEpiC for which DMEM (DUTSCHER) with 1 g/L of supplemented glucose is used, at 37° C. under 5% CO2 and saturated humidity to obtain confluency.
# On the first day of oxygen and glucose deprivation, (5th, 6th, 7th or 8th day of culture), the culture conditions are drastically changed. The medium of all plates is removed and replaced by DMEM (DUTSCHER) medium without glucose and supplemented only with 1% penicillin-streptomycin (DUTSCHER). Anidulafungin or micafungin dissolved in dimethyl sulfoxide (DMSO) is then added to each well at the desired concentration, resulting in a maximum of 1% DMSO, and the plates are placed under hypoxia at <1% 02 and 5% CO2 at 37° C. for 24 hours of culture. Each compound was tested in a concentration range.
# After 24 hours, the growth medium is changed and replaced by a richer medium, DMEM (DUTSCHER) at 1 g/L glucose and 2% FBS (INNOPROT) and 1% penicillin-streptomycin (DUTSCHER). These media will have been pre-equilibrated at 37° C. in advance. The cells are then returned to culture at 37° C. under 20% 02 and 5% CO2 for 22h.
# After 22 hours of reoxygenation, the potential protective effect of anidulafungin or micafungin is measured by a cell viability test using calcein AM (CORNING), which is a dye substrate. The calcein AM can easily cross the cell membrane of the viable cells. The AM ester groups mask the part of the molecule that chelates calcium. Once inside the cells, the (non-fluorescent) calcein AM is hydrolyzed to (fluorescent) calcein by endogenous esterases. The resulting calcein molecule binds to calcium inside the cell and remains trapped inside the cell. These molecules emit strong green fluorescence when subjected to […] of a particular wavelength (495 nm). Since dead cells lack esterase activity, only living cells are labelled.
# This cell viability test is performed in two steps. […]
# [1] = [Anidulafungin] log μM 0.1760913
# [2] = [Anidulafungin] log μM 0.7781513
# [3] = [Anidulafungin] log μM −0.1249387
# [4] = [Anidulafungin] log μM −0.30103
# [5] = [Anidulafungin] log μM −0.5228788
compound,measurement,setting,value
"CCCCCOc1ccc(-c2ccc(-c3ccc(C(=O)N[C@H]4C[C@@H](O)[C@@H](O)NC(=O)[C@@H]5[C@@H](O)[C@@H](C)CN5C(=O)[C@H]([C@@H](C)O)NC(=O)[C@H]([C@H](O)[C@@H](O)c5ccc(O)cc5)NC(=O)C5C[C@@H](O)CN5C(=O)[C@H]([C@@H](C)O)NC4=O)cc3)cc2)cc1 (stereo partly drawn) [Anidulafungin] ({pTerphenylCO(4''-OnC5H11)}-[Orn(4R-OH,5R-OH)]T[ξPro(4R-OH)][hTyr(3S-OH,4S-OH)]T[Pro(3S-OH,4S-Me)]; lactam 1-C)",Globalfluo assay 1,[Anidulafungin] log μM 0,11468420 arbitrary units
same,Globalfluo assay 2,[Anidulafungin] log μM 0,12221770 arbitrary units
same,Globalfluo assay 3,[Anidulafungin] log μM 0,14645590 arbitrary units
same,Mean globalfluo,[Anidulafungin] log μM 0,12778593 arbitrary units
same,Survival rate (%),[Anidulafungin] log μM 0,15%
same,Globalfluo assay 1,[1],11838960 arbitrary units
same,Globalfluo assay 2,[1],12087610 arbitrary units
same,Globalfluo assay 3,[1],13326480 arbitrary units
same,Mean globalfluo,[1],12417683 arbitrary units
same,Survival rate (%),[1],13%
same,Globalfluo assay 1,[Anidulafungin] log μM 0.30103,13177930 arbitrary units
same,Globalfluo assay 2,[Anidulafungin] log μM 0.30103,13103050 arbitrary units
same,Globalfluo assay 3,[Anidulafungin] log μM 0.30103,13640130 arbitrary units
same,Mean globalfluo,[Anidulafungin] log μM 0.30103,13307037 arbitrary units
same,Survival rate (%),[Anidulafungin] log μM 0.30103,18%
same,Globalfluo assay 1,[Anidulafungin] log μM 0.60206,12006890 arbitrary units
same,Globalfluo assay 2,[Anidulafungin] log μM 0.60206,13270810 arbitrary units
same,Globalfluo assay 3,[Anidulafungin] log μM 0.60206,14798310 arbitrary units
same,Mean globalfluo,[Anidulafungin] log μM 0.60206,13358670 arbitrary units
same,Survival rate (%),[Anidulafungin] log μM 0.60206,18%
same,Globalfluo assay 1,[2],14108250 arbitrary units
same,Globalfluo assay 2,[2],14242150 arbitrary units
same,Globalfluo assay 3,[2],13880120 arbitrary units
same,Mean globalfluo,[2],14076840 arbitrary units
same,Survival rate (%),[2],22%
same,Globalfluo assay 1,[Anidulafungin] log μM 0.90309,13394210 arbitrary units
same,Globalfluo assay 2,[Anidulafungin] log μM 0.90309,14898570 arbitrary units
same,Globalfluo assay 3,[Anidulafungin] log μM 0.90309,14923380 arbitrary units
same,Mean globalfluo,[Anidulafungin] log μM 0.90309,14405387 arbitrary units
same,Survival rate (%),[Anidulafungin] log μM 0.90309,24%
same,Globalfluo assay 1,[3],9674527 arbitrary units
same,Globalfluo assay 2,[3],11462560 arbitrary units
same,Globalfluo assay 3,[3],11240740 arbitrary units
same,Mean globalfluo,[3],10792609 arbitrary units
same,Survival rate (%),[3],4%
same,Globalfluo assay 1,[4],12822290 arbitrary units
same,Globalfluo assay 2,[4],11197900 arbitrary units
same,Globalfluo assay 3,[4],11873360 arbitrary units
same,Mean globalfluo,[4],11964517 arbitrary units
same,Survival rate (%),[4],10%
same,Globalfluo assay 1,[5],11050980 arbitrary units
same,Globalfluo assay 2,[5],10353030 arbitrary units
same,Globalfluo assay 3,[5],11612880 arbitrary units
same,Mean globalfluo,[5],11005630 arbitrary units
same,Survival rate (%),[5],5%
same,Globalfluo assay 1,[Anidulafungin] log μM −1,9709693 arbitrary units
same,Globalfluo assay 2,[Anidulafungin] log μM −1,10543570 arbitrary units
same,Globalfluo assay 3,[Anidulafungin] log μM −1,12170290 arbitrary units
same,Mean globalfluo,[Anidulafungin] log μM −1,10807851 arbitrary units
same,Survival rate (%),[Anidulafungin] log μM −1,4%
same,Globalfluo assay 1,[Anidulafungin] log μM −2,10301450 arbitrary units
same,Globalfluo assay 2,[Anidulafungin] log μM −2,9760112 arbitrary units
same,Globalfluo assay 3,[Anidulafungin] log μM −2,11132460 arbitrary units
same,Mean globalfluo,[Anidulafungin] log μM −2,10398007 arbitrary units
same,Survival rate (%),[Anidulafungin] log μM −2,2%
